Results from patent US20230407373A1 (priority 2020, published 2023).
“Also recorded” adds a separate entry of the source. Read-outs that look alike come from different tables or passages of the source.

Legend:
Format in all cases: binding
SARS-CoV-2 gRNA = conditions: for target (unweighted spectral count of the protein in the RNP capture): LC-MS/MS, Probe I sample (first 199 lines of Table 2)
[1] = tested on: SARS-CoV-2 gRNA and sgRNAs; conditions: for target (unweighted spectral count in RNP capture): Probe II capture, LC-MS/MS LFQ; for background (unweighted spectral count in control): no-probe control pull-down, used as background for Probe II; for target (unweighted spectral count of the protein in the RNP capture experiment): LC-MS/MS label-free quantification, probe pool not given; for back-ground (unweighted spectral count of the protein in the control experiment): protein background of the control (e.g. no-probe) experiment
gRNA of HCoV-OC43 = conditions: for target (spectral count, OC43 Probe I RNP capture) / background (spectral count, no-probe control): type n_48_v: 48 hours post-infection; for target (spectral count, OC43 Probe I RNP capture): infected cells, unweighted spectral count; for background (spectral count, no-probe control): no-probe control on infected cells; for target (spectral count) / background (spectral count): type g_36_m, 36 hpi, Probe I; for target (spectral count): HCoV-OC43-infected HCT-8 cells; for background (spectral count): uninfected-probe control
HCoV-OC43 gRNA and sgRNA = conditions: for target (unweighted spectral count): OC43 Probe II, infected cells; for target (unweighted spectral count) / target (unweighted spectral count, OC43 Probe II capture): tested against no-probe control; for target (unweighted spectral count, OC43 Probe II) / background (unweighted spectral count, no-probe control): type n_48_v, 48 hpi; for target (unweighted spectral count, OC43 Probe II): OC43 Probe II capture on infected cells; for background (unweighted spectral count, no-probe control): no-probe control on infected cells; for target (spectral count) / background (spectral count): type s_36_m, Probe II; for target (spectral count): HCoV-OC43-infected HCT-8 cells; for background (spectral count): uninfected-probe control; for target (unweighted spectral count, OC43 Probe II capture): FDR<10%

Row | Substance | target (unweighted spectral count of the protein in the RNP capture) (SARS-CoV-2 gRNA; […]) | target (unweighted spectral count in RNP capture) [1] | background (unweighted spectral count in control) [1] | target (spectral count, OC43 Probe I RNP capture) (gRNA of HCoV-OC43) | background (spectral count, no-probe control) (gRNA of HCoV-OC43) | target (unweighted spectral count) (HCoV-OC43 gRNA and sgRNA; 24 hpi (type n_24_v)) | target (unweighted spectral count, OC43 Probe II) (HCoV-OC43 gRNA and sgRNA) | background (unweighted spectral count, no-probe control) (HCoV-OC43 gRNA and sgRNA) | target (spectral count) (HCoV-OC43 gRNA and sgRNA; 36 hpi) | background (spectral count) (HCoV-OC43 gRNA and sgRNA; 36 hpi) | target (unweighted spectral count, OC43 Probe II capture) (HCoV-OC43 gRNA and sgRNA; 36 hpi, type n_36_v) | target (unweighted spectral count) (HCoV-OC43 gRNA and sgRNA; 12 hpi (type n_12_v)) | also measured
1 | DHX9: host protein, UniProt Q08211 | 15 | 11 | 1 | 24 | 4 | 13 | 31 | 4 | 27 | 3 | – | – | –
2 | PTBP3: host protein, UniProt O95758 | 23 | – | 1 | 14 | 2 | 7 | 12 | 2 | 8 | 1 | 8 | – | enrichment in SARS-CoV-2 Probe I RNP capture (SARS-CoV-2 gRNA): found in the SARS-CoV-2 experiments; enrichment in SARS-CoV-2 Probe II RNP capture [1]: found in the SARS-CoV-2 experiments; target (spectral count) (gRNA of HCoV-OC43): 11; background (spectral count) (gRNA of HCoV-OC43): 1
3 | TAF15: host protein, UniProt Q92804 | – | 8 | 1 | 11 | 1 | – | 8 | 1 | 8 | 1 | – | 5 | target (unweighted spectral count in RNP capture) (SARS-CoV-2 gRNA; Probe I capture, […], LC-MS/MS LFQ): 5; background (unweighted spectral count in control) (SARS-CoV-2 gRNA; no-probe control pull-down, used as background for Probe I): 1
4 | ELAVL1: host protein, UniProt Q15717 | 77 | 74 | 1 | 50 | 2 | 17 | 36 | 2 | 40 | 7 | 40 | 9 | enrichment in SARS-CoV-2 Probe I RNP capture (SARS-CoV-2 gRNA): found in the SARS-CoV-2 experiments; enrichment in SARS-CoV-2 Probe II RNP capture [1]: found in the SARS-CoV-2 experiments; target (spectral count) (gRNA of HCoV-OC43): 38; background (spectral count) (gRNA of HCoV-OC43): 6
5 | G3BP1 | 55 | 54 | 1 | – | – | – | – | – | – | – | 8 | 5 | target (unweighted spectral count, OC43 Probe II capture) (HCoV-OC43 gRNA and sgRNA; 24 hpi, type n_24_v): 5
6 | PTBP1: host protein, UniProt P26599 | 108 | – | – | – | – | 33 | 43 | 5 | 61 | 12 | 61 | 17 | –
7 | RPL22L1 | 8 | – | – | – | – | – | – | – | – | – | – | 5 | –
8 | VIM | 16 | – | – | – | – | – | – | – | – | – | – | – | target (unweighted spectral count of the protein in the RNP capture experiment) [1]: 17; back-ground (unweighted spectral count of the protein in the control experiment) [1]: 4
9 | EIF4H: host protein, UniProt Q15056 | 25 | 31 | 1 | 9 | 1 | – | 9 | 1 | 8 | 1 | 8 | – | enrichment in SARS-CoV-2 Probe I RNP capture (SARS-CoV-2 gRNA): enriched; also recorded: found in the SARS-CoV-2 experiments; enrichment in SARS-CoV-2 Probe II RNP capture [1]: enriched; also recorded: found in the SARS-CoV-2 experiments; target (spectral count) (gRNA of HCoV-OC43): 8; background (spectral count) (gRNA of HCoV-OC43): 1; target (unweighted spectral count, OC43 Probe II capture) (HCoV-OC43 gRNA and sgRNA; 24 hpi, type n_24_v): 5
10 | TARDBP | 28 | 30 | 1 | 28 | 3 | 20 | 22 | 3 | – | – | 19 | 10 | –
11 | NPM1 | 13 | 17 | 1 | – | – | – | – | – | – | – | – | 4 | target (unweighted spectral count, OC43 Probe II capture) (HCoV-OC43 gRNA and sgRNA; 24 hpi, type n_24_v): 7
12 | HNRNPAB | 44 | 44 | 1 | 37 | 2 | – | 27 | 2 | – | – | 21 | 10 | –
13 | MRPL28: host protein, UniProt Q13084 | 12 | – | – | 10 | 1 | – | 7 | 1 | – | – | – | – | target (spectral count) (gRNA of HCoV-OC43): 13; background (spectral count) (gRNA of HCoV-OC43): 1
14 | ILF2: host protein, UniProt Q12905 | 12 | – | – | 14 | 3 | 7 | 17 | 3 | – | – | 15 | 4 | target (unweighted spectral count of the protein in the RNP capture experiment) [1]: 5; back-ground (unweighted spectral count of the protein in the control experiment) [1]: 1; target (spectral count) (gRNA of HCoV-OC43): 16; background (spectral count) (gRNA of HCoV-OC43): 2
15 | HNRNPU | 75 | – | 3 | 80 | 8 | 40 | 72 | 8 | – | – | 69 | 24 | –
16 | PCBP1 | 12 | – | 2 | – | – | 8 | – | – | – | – | 16 | 8 | –
17 | FAM98A | 7 | – | – | – | – | – | 5 | 1 | – | – | 4 | – | –
18 | FXR1 | 9 | 47 | 1 | – | – | – | 9 | 1 | – | – | 5 | – | –
